{"source": "paper PMC5855801", "about": "“Benzothiophenone Derivatives Targeting Mutant Forms of Estrogen Receptor-α in Hormone-Resistant Breast Cancers” (International Journal of Molecular Sciences, 2018)", "key": {"ERα": {"molecular_target": "T1, ERα (Homo sapiens, UniProt P03372)", "T1 construct": "endogenous in cells; host or cells: T47DKBluc (ATCC CRL-2865)", "T1 sequence (P03372 1-595)": "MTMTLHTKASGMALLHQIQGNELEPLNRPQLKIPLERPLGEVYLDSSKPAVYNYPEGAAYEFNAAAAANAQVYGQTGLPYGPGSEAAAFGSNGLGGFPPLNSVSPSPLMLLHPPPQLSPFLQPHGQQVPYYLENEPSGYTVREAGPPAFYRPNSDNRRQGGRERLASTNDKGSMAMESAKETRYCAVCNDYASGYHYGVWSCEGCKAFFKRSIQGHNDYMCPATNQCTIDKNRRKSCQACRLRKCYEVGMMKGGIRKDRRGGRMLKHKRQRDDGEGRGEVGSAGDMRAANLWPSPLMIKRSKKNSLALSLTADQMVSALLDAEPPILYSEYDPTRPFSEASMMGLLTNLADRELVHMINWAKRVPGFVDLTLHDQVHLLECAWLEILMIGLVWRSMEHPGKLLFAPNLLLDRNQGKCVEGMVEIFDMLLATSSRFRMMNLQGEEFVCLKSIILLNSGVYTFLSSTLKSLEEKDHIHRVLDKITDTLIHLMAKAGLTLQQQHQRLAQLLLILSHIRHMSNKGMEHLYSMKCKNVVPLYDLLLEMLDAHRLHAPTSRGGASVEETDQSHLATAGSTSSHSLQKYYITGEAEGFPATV", "assay": "Estrogen-responsive luciferase reporter transcriptional assay in T47DKBluc cells", "type": "cell-based", "conditions": "1 nM E2, 24 h, read-out: IC50 against ERα in the luciferase reporter-based transcriptional assay", "protocol": "T47DKBluc cells (ATCC® CRL-2865^TM, Manassa, VA, USA) stably transfected with a 3X-ERE–promoter–luciferase reporter gene construct, pGL2.TATA.Inr.luc.neo [38], were used to measure inhibition of ERα-driven transcriptional activity of the luciferase reporter.\nThis assay was performed as described previously. Briefly, ERα-positive T47DKBluc cells were grown in phenol red-free RPMI 1640 supplemented with 10% CSS for 5 days. The cells were seeded on 96-well plates (2 × 10^4 cells/well). After 24 h, the cells were treated with test compounds in the presence of 1 nM E2. Twenty four hours post-treatment, the cells were lysed with 50 μL of 1× passive lysis buffer (Promega, Madison, WI, USA). Twenty microliters of the lysate from each treatment were transferred onto a white, 96-well, flat-bottomed plate (Corning Life Sciences, Corelle, NY, USA), and the luminescent signal was measured after adding 50 μL of the luciferase assay reagent (Promega, Madison, WI, USA) on a Tecan M200Pro microplate reader (Tecan, Menedorf, Switzerland). Differences in growth were normalised against total protein concentration, which was measured by the bicinchoninic acid (BCA) assay."}, "PC3 cells": {"test_system": "PC3 cells", "assay": "Presto Blue cell viability assay, PC3", "type": "cell-based, human", "conditions": "PC3, 50 µM, 96 h", "protocol": "Cell viability was determined using the Presto Blue cell viability assay (Thermo Fisher Scientific, Waltham, MA, USA). Cells were seeded in clear bottom black-walled 96-well plates at a density of 5 × 10^3 cells/well in 100 μL of their respective media. On the following day, the cells were treated with test compounds (0.001–22.5 μM) in the presence of 1 nM E2 and incubated at 37 °C. After 96 h, 30 μL of Presto Blue reagent was added and incubated for 10 min at 37 °C. The fluorescent signal from viable cells was measured at 590 nm.\nSupplementary Materials: Benzothiophenone Derivatives Targeting Mutant Forms of Estrogen Receptor-α in Hormone-Resistant Breast Cancers\nFigure S1. Effect of VPC-16606 on viability of PC3 cells as measured in the Presto Blue assay. […]\nFigure S2. TR-FRET Assay showing displacement of Fluorescein labelled PGC1 α peptide by VPC-16606 upon incubation with ER β-LBD. OHT was used at 1µM. Error bars represent standard deviation for two independent experiments performed in triplicates. […]"}, "ERα-LBD and SRC-3": {"molecular_target": "T2, ERα-LBD and SRC-3 (Homo sapiens, UniProt P03372)", "T2 construct": "generated by cloning the LBD of ERα into the pACT vector; expressed in transfected cells; host or cells: MDA-MB-231", "T2 sequence (P03372 311-547 limits assumed)": "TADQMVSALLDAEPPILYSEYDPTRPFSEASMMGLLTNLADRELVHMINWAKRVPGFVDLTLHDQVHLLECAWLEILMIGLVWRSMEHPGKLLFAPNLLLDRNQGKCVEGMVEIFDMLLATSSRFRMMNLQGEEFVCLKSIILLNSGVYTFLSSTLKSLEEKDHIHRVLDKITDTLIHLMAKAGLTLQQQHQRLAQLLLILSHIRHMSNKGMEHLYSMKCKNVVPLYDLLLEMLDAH", "assay": "Mammalian two-hybrid assay in MDA-MB-231 cells", "type": "cell-based", "conditions": "1 nM E2, 24 h, read-out: IC50 for interaction between ERα-LBD and SRC-3 fusion proteins", "protocol": "The direct effect of VPC-16606 on ERα-co-activator recruitment was assessed by the mammalian two-hybrid system (Promega, Madison, WI, USA). MDA-MB-231 cells were transfected with pACT-ERα-LBD, pBIND-Steroid receptor coactivator protein-3 (pBIND-SRC-3), a luciferase reporter plasmid containing a GAL4 recognition sequence and a constitutively-active Renilla reporter plasmid. The cells were treated with a […] dilution of VPC-16606 starting at 50 µM.\nFor the mammalian two hybrid assay, the CheckMate^TM Mammalian Two-Hybrid System (Promega, Madison, WI, USA) was used. The pACT-ERα-LBD construct was generated by cloning the LBD of ERα into the pACT vector to produce the ERα-LBD protein fused to the VP16 activation domain. The SRC-3 coactivator peptide (aa 614–698) containing LXXLL (L, leucine; X, any amino acid) motifs 1 and 2 was cloned into the pBIND vector to generate the pBIND-SRC-3 construct expressing the SRC-3 protein fused to the GAL4-DNA binding domain. Full-length human ERα (hERαWT) was encoded on a pcDNA3.1 expression plasmid. Point mutations in the LBD were generated with the QuikChange mutagenesis kit (Stratagene, San Diego, CA, USA) using the hERαWT template. […]\nMDA-MB-231 cells were seeded on 96-well plates (2 × 10^4 cells/well) in 150 µL of medium. […] After 24 h, the cells were lysed and luminescence was measured as for the luciferase transcriptional assay described above."}}, "data": [{"molecule": "CC(=O)N(/N=C1\\Sc2c(C)cccc2C1=O)c1ccccc1Cl", "note": "[VPC-16606]", "values": [{"measurement": "IC50", "setting": "ERα", "value": 300, "unit": "nM"}, {"measurement": "Cell viability of PC3 cells", "setting": "PC3 cells", "value": "affects cell viability"}, {"measurement": "IC50", "setting": "ERα-LBD and SRC-3", "value": 800, "unit": "nM"}]}]}
